Laboratory results from the OPERA property sets (Mansouri et al. 2018).
Converted amounts (≈) assume the structure as drawn.

Row | SMILES | solubility (25 °C) [µM] | solubility (20 °C) [µM] | further results
1 | O=C1OCCC1N(C(=O)C1CC1)c1cccc(Cl)c1 (stereo not given) | 2050 (≈ 574 µg/mL) | – | –
2 | CCS(=O)(=O)c1nnc(N(C)C(=O)NC)s1 | – | 11400 (≈ 3000 µg/mL) | –
3 | O=S(=O)(O)OCCOc1ccc(Cl)cc1Cl | – | – | solubility: 871000 µM (≈ 250000 µg/mL)
4 | Cc1cc(Cl)ccc1NC(=S)N(C)C | – | 219 (≈ 50 µg/mL) | –
5 | CC(=O)OC[C@H]([C@H](OC(C)=O)c1ccccc1)[N+](=O)[O-] | – | 107 (≈ 30 µg/mL) | –
6 | Clc1ccc(Sc2cc(Cl)c(Cl)cc2Cl)cc1 | – | 0.0926 (≈ 0.03 µg/mL) | –
7 | CON(C(=O)c1cc(C)oc1C)C1CCCCC1 | – | 1.19 (≈ 0.3 µg/mL) | –
8 | CCN(C(=O)Oc1cccc(NC(=O)OC(C)C)c1)c1ccccc1 | 8.76 (≈ 3 µg/mL) | – | –
9 | CCOC(=O)CNc1nc(Cl)nc(NC(C)C)n1 | 2740 (≈ 750 µg/mL) | – | –
10 | CCOC(=O)C(C)Oc1ccc(Oc2nc3ccc(Cl)cc3o2)cc1 (stereo not given) | 2.59 (≈ 0.937 µg/mL) | – | –
